Experimental data published in PMC5315633 (ACS chemical biology, 2016).

Key:
Psf3 [1] = target: T1, Psf3 (Pseudomonas syringae, UniProt I6R485); assay: NADPH consumption at […] nm, Michaelis-Menten fit; type: biochemical; conditions: 250 uM NADPH (saturating), 50 mM HEPES pH 7.5
T1 sequence (I6R485 1-295): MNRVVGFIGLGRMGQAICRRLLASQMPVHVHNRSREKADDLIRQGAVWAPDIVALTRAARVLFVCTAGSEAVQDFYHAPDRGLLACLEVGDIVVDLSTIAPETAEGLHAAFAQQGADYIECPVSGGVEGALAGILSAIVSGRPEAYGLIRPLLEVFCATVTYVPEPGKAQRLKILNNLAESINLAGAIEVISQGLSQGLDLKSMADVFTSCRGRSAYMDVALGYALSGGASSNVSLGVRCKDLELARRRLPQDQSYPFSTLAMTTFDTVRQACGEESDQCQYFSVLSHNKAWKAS

Psf3 [2] = target: T1, Psf3; assay: […] NMR of reverse; type: biochemical; conditions: 2 mM NADP+, 1 mM (S)-2-HPP, pH 7.5, room temperature

| SMILES | KM (Psf3 [1]) | 31P NMR of reverse (oxidation) reaction (Psf3 [2]) |
| --- | --- | --- |
| CC(=O)CP(=O)(O)O [2-OPP] | Kinetic parameters, with respect to 2-OPP and determined by monitoring the consumption of NADPH | – |
| C[C@H](O)CP(=O)(O)O [(S)-2-HPP] | – | reaction with (S)-2-HPP resulted in a new peak that is consistent with 2-OPP |
